Measurements from publication PMC12507699, “SLC45A4 is a pain gene encoding a neuronal polyamine transporter” (Nature, 2025).

Assays:
SLC45A4 [1] = molecular target: T1, SLC45A4 (Homo sapiens, UniProt Q5BKX6); assay: […]-SPD uptake and homologous competition in Neuro-2A cells overexpressing SLC45A4; also nanoDSF destabilization of purified protein in detergent and nanodiscs; assay type: cell-based; design: full-length human SLC45A4
T1 sequence (Q5BKX6 1-768): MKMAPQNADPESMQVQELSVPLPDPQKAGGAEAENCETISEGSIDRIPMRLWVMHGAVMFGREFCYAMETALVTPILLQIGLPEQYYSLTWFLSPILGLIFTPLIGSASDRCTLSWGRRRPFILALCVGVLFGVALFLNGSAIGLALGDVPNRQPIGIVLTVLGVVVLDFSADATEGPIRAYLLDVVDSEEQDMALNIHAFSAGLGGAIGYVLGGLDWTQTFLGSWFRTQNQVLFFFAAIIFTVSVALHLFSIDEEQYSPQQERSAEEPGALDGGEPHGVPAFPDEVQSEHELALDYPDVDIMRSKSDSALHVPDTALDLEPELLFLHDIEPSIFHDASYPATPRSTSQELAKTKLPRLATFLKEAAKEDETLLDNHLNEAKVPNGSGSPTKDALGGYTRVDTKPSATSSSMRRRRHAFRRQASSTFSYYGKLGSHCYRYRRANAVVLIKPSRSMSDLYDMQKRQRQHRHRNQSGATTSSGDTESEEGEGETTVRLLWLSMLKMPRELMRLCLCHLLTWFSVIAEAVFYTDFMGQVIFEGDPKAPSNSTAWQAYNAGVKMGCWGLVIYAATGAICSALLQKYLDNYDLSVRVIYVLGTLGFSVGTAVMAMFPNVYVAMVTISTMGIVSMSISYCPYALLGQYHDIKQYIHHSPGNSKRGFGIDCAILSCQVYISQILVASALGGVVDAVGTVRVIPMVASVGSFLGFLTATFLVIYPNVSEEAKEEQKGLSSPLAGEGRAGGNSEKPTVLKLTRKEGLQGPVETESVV

SLC45A4 [2] = molecular target: T1, SLC45A4; assay: competition of […]-SPD uptake in Neuro-2A cells overexpressing SLC45A4; also nanoDSF on purified protein; assay type: cell-based; design: full-length human SLC45A4
SLC45A4 [3] = molecular target: T1, SLC45A4; assay: cell-based

SMILES | IC50 (SLC45A4 [2]) [µM] | further results
NCCCCNCCCN [SPD, spermidine] |  | IC50 (SLC45A4 [1]): 123 µM
NCCCCCN [Cad, cadaverine] | 67 | 
NCCCNCCCCNCCCN [Spm, spermine] |  | IC50 (SLC45A4 [3]): 240 µM
NCCCCN [Put, putrescine] | 74 | 
